Experimental data taken from patent publication US11904051B2, “Shear stress sensitive liposomes” (Universität Basel, priority 2018, dated 2024).
Like-named read-outs stand apart in the source and are kept apart here.

Experiments:
[1] = Small-angle neutron scattering (SANS) of liposomes as a function of temperature; format: physicochemical
Source text: In order to determine the structural parameters, including the bilayer thickness of the selected liposomal formulations, a suitable model for data fitting has to be identified. […] The structure factor was fitted using the sticky hard sphere model (Baxter et al., The Journal of Chemical Physics 1968, 49 (6), 2770-2774; Mays, Langmuir 1989, 5, 422-428). In order to adjust the form factor to the overall shape of the liposomes, an ellipsoidal shell model with a homogeneous cross-section (Guinier, Annales de Physique, 1939; pp 161-237) was applied. The elliptical shell model is defined by three orthogonal axes with lengths a=R, b=R and c=εR, along with eccentricity ε>0, (ε<1: oblate, ε=1: spherical, ε>1: prolate). The model also accounts for variations in bilayer thickness and liposome size. As the scattering data of the Pad-PC-Pad liposomes at the temperature of 35° C. could not be approximated satisfactorily by means of the ellipsoidal shell, the inventors included disks with a homogeneous cross-section—an approach motivated by the cryo-TEM results. Together with the experimental data of the Pad-PC-Pad liposomes at three selected temperatures, the obtained fits are represented in FIG. 23.
The inventors recognised that the inhomogeneity of the liposomal formulations, except for Pad-PC-Pad, concerning the shape and size of the artificial lipids in this study only allows for the reasonable fitting of the q-range, which corresponds to bilayer thickness. For this purpose, the inventors applied an extended Guinier law (Hjelm et al., The Journal of Physical Chemistry B 2000, 104 (2), 197-211; Fratzl, Journal of Statistical Physics 1994, 77 (1-2), 125-143), which yields the thickness of the bilayer. To account for possible multi-lamellarity, the inventors included a para-crystalline stacking model (Schwartz et al., Biophysical journal 1975, 15 (12), 1201-1233; FruÈhwirth et al., Journal of Applied Crystallography 2004, 37 (5), 703-710) as a structure factor.
SANS measurements were performed at the SANS-I beamline at the Swiss Spallation Neutron Source SINQ facility (Paul Scherrer Institute, Villigen, Switzerland). The samples were loaded into 2 mm-path length, boron-free quartz glass cells and mounted in a temperature-controlled holder. This system allows for controlling the temperature of the specimen with an accuracy better than 1 K. The liposomal suspensions were measured between 22 and 42° C. in 3 to 4 K steps. Subsequently, the suspensions were cooled down to room temperature (22° C.) and measured again. Three detector distances, i.e. 1.6, 6.0 and 18.0 m, were used to collect data over the range of scattering vectors 0.01 nm^−1<q<10 nm^−1 at the neutron wavelengths (A) […]. Data were collected with a two-dimensional ^3He-detector with an array of 128×128 pixels and reduced to one-dimensional I(q) scattering curves, thus radially averaging the two-dimensional images. The data were corrected for transmission, background scattering and detector efficiency according to a standard procedure using the BerSANS software package (Keiderling, Applied Physics A 2002, 74 (1), s1455-s1457; Strunz et al., Journal of Applied Crystallography 2000, 33 (3 Part 1), 829-833).
The SANS data were analysed using SASfit software (Breßler et al., Journal of Applied Crystallography 2015, 48 (5), 1587-1598) and corresponding models. A Pad-PC-Pad sample was fitted over the entire measured q-range, whereas we restricted the fit for the other samples to the q-range, which corresponds to lipid bilayer thickness. For Pad-PC-Pad, the inventors used an ellipsoidal shell model with a homogeneous cross-section (Guinier, Annales de Physique, 1939; pp 161-237) and size distributions in terms of both thickness and radius. […]

[2] = Dynamic light scattering of liposome formulations before and after SANS heating cycles; format: physicochemical; settings: for PDI, Before heating / Size (hydrodynamic), Before heating: before the SANS experiments (n = 5); for Size (hydrodynamic), Before heating: room temperature, D2O; for DLS larger population size: bimodal size distribution; for PDI, After heating / Size (hydrodynamic), After heating: after the SANS experiments (n = 3); for Size (hydrodynamic), After heating: heating to 42° C. and back, eight months after
Description: A library of artificial phospholipids was synthesised. Table 5 summarises the characterisation of the liposomal formulations concerning hydrodynamic size and polydispersity, before and after the temperature-dependent SANS measurements. The size of the DPPC and Pad-PC-Pad liposomes was (120±2) nm with a polydispersity index between 0.01 and 0.20. […] Pad-Pad-PC and Sur-PC-Sur liposomes were 400 to 1,500 nm in size with a polydispersity index of 0.57.
DLS measurements were carried out on a DelsaMax PRO (Beckman Coulter, USA) at room temperature and at a lipid concentration of 0.3 mg/mL in D2O. The data were averaged among five independent measurements before heating cycles and three measurements eight months after applying heating cycles. Data were treated with the cumulant analysis method.

[3] = reported previously, cited from earlier work
[4] = Release experiments with 5(6)-carboxyfluorescein-loaded large unilamellar vesicles (LUVET100), spontaneous and vortex-triggered; format: physicochemical
Source text: FIG. 8 Release experiments using 5(6)-carboxyfluorescein-loaded large unilamellar vesicles comprising 1,3-diheptadecanamidopropan-2-yl (2-(trimethylammonio) ethyl) phosphate (4) obtained via extrusion through a 100 nm track-edged filter membrane (LUVET100). Triggered release was induced by shaking the samples for a specific amount of time on a vortex-shaker.
Previously the inventors reported the 5(6)-carboxyfluorescein release from vesicles containing 1,3-palmitoylamido-1,3-deoxy-sn-glycero-2-phosphatidylcholine (2) (Holme et al., Nat. Nanotechnol. 2012, 7, 536-543). […] Increasing the Tm promises improved release properties. […] This leads to a lower leakage of the vesicles at 22° C. (room temperature) as well as 37° C. (average human body temperature) (FIG. 8). A prolongation if the acyl chain to the artificial C18 phospholipid 1,3-stearoylamido-1,3-deoxy-sn-glycero-2-phosphatidylcholine leads to an increased Tm of 52° C., but this phospholipid forms almost no liposomes anymore.
Each sample was treated with Triton X-100 to induce a full release of 5(6)-carboxy fluorescein.
Large unilamellar vesicles with a diameter of 100 nm (LUVET100) of the 1,3-diheptadecanamidopropan-2-yl (2-(trimethylammonio) ethyl) phosphate (4) were prepared following the extrusion protocol: in a 25 ml round bottom flask, 10 mg of the lipid was dissolved in CH2Cl2. After evaporation of the organic solvent, the film was further dried under high vacuum (40 mbar) overnight. Then the film was hydrated with the internal buffer for 30 min (1 ml, 50 mM 5(6)-carboxyfluorescein, 10 mM HEPES buffer (AppliChem), 10 mM NaCl dissolved in pure water, pH 7.4). Now at least 5 freeze-thaw cycles (liquid N2 to 65° C.) were carried out before the suspension was extruded 11 times using a Mini Extruder (Avanti Polar Lipids, USA) using track-edged filters with a mesh size of 100 nm (Whatman, USA). The external buffer was then exchanged on a size exclusion column (1.5×20 cm Sephadex G-50 column) in external buffer (107 mM NaCl dissolved in ultrapure water, 10 mM HEPES, pH 7.4).

[5] = Differential scanning calorimetry, main phase transition of vesicle membranes; format: physicochemical; settings: main phase transition temperature of liposome membrane
Source text: Interdigitation of membrane leaflets also influences the membranes main-phase transition temperature. […] Also, the value for the bilayer main-phase transition temperature is 11.5 K higher than the calculated critical temperature from the monolayer experiments, where no interdigitation is possible.

[6] = 22 ° C. (after cooling down to room temperature)

SMILES | most probable bilayer thickness ([1]; 22 ° C.) [nm] | most probable bilayer thickness [1, 6] [nm] | most probable bilayer thickness ([1]; 25 ° C.) [nm] | most probable bilayer thickness ([1]; 28 ° C.) [nm] | most probable bilayer thickness ([1]; 32 ° C.) [nm] | most probable bilayer thickness ([1]; 35 ° C.) [nm] | most probable bilayer thickness ([1]; 39 ° C.) [nm] | most probable bilayer thickness ([1]; 42 ° C.) [nm] | DLS most probable / dominant or smaller population size [2] | PDI, Before heating [2] | DLS larger population size [2] [μm] | Tm, main phase transition temperature [3] [°C] | PDI, After heating [2] | Size (hydrodynamic), After heating [2] [nm] | other results
CCCCCCCCCCCCCCCC(=O)NC[C@H](COP(=O)([O-])OCC[N+](C)(C)C)NC(=O)CCCCCCCCCCCCCCC [Pad-Pad-PC] | 5.57 | 5.67 | 5.55 | 5.55 | 5.52 | 5.54 | 5.58 | 5.57 | about 150 nm | 0.57 | ~3 | 46 | – | – | Size (hydrodynamic), Before heating ([2]; listed as Pad-Pad-PC (2)): 1500 ± 30 nm; PDI, Before heating ([2]; listed as Pad-Pad-PC (2)): 0.57 ± 0.01; Tm, main phase transition temperature ([3]; listed as Pad-Pad-PC (2)): 40-47 °C
CCCCCCCCCCCCCCCC(=O)OCC(COC(=O)CCCCCCCCCCCCCCC)OP(=O)([O-])OCC[N+](C)(C)C [Pes-PC-Pes] | 3.9 | 4.82 | 4.17 | 4.46 | 4.42 | 4.6 | 4.68 | 4.58 | about 100 nm | 0.57 ± 0.01 | ~1 | 39 | 0.92 ± 0.08 | 3100 ± 200 | increase in bilayer thickness at phase transition ([1]; present study): 18%; increase in bilayer thickness after the heating cycle ([1]; temperature cycle to 42° C. including cooling to room temperature): 24%; Size (hydrodynamic), Before heating ([2]; listed as Pes-PC-Pes (3)): 170 ± 20 nm
CCCCCCCCCCCCCCCCCC(=O)NCC(CNC(=O)CCCCCCCCCCCCCCCCC)OP(=O)([O-])OCC[N+](C)(C)C [Sad-PC-Sad, 1,3-distearamidopropan-2-phosphocholine] | 3.15 | 3.01 | 3.51 | 3.51 | 3.49 | 3.46 | 3.38 | 3.33 | 160 nm | 0.23 ± 0.01 | – | 52 | 0.20 ± 0.02 | 220 ± 10 | bilayer thickness variations ([1]; 22 to 42° C.): ≤ 10%; Size (hydrodynamic), Before heating ([2]; listed as Sad-PC-Sad (6)): 160 ± 3 nm; Release at 37° C. after 2 h ([4]; 37° C., 2 h): 9.1%; Release at RT after 60 s vortex ([4]; mechanically induced release, 22° C. (RT), 60 s vortexing): 8.32%; Release 37° C. after 60 s vortex ([4]; mechanically induced release, 37° C., 60 s vortexing): 40.2%; Release at RT after 6 days ([4]; spontaneous release, RT, (6 days)): 8.4%; Tm [5]: 52 °C
